These results are taken from patent US20250333397A1 (REMIX THERAPEUTICS INC., priority 2021, published 2025).

SMILES strings stand for the structures. Read-outs that look alike come from different tables or passages of the source. Bounds are passed on as bounds.

The AC50 is the concentration at which the activity in the assay is half-maximal. One may read the IC50 as the concentration that inhibits the measured activity by half.

What all share (type): cell-based, human
The test system of one experiment is HTT mRNA. The experiment can be described thus: RT-qPCR splicing assay, HTT canonical (CJ) and alternative (AJ) junction mRNA. The conditions noted are these: Homo sapiens; for AC50: read-out: HTT AJ (AC50, increase in AJ mRNA). In short, it runs like this:
(§1)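 Junction-specific RT-qPCR read the canonical exon-exon junction and the compound-induced alternative-exon junction, normalized to GAPDH, GUSB or PPIA and then to DMSO (2^(-ΔΔCt)). Input was lysate from A673 or K562 cells exposed for 24 h to compound up to 10 uM.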
(Real-time PCR tracks product formation cycle by cycle.)

Another experiment relates to MYB mRNA. Description: RT-qPCR splicing assay, MYB canonical (CJ) and alternative (AJ) junction mRNA. The conditions noted are these: Homo sapiens; for AC50: read-out: MYB AJ (AC50, increase in AJ mRNA). In short, it runs like this:
as §1

A further experiment has as its system SMN2 mRNA. Description: RT-qPCR splicing assay panel, SMN2 canonical junction (CJ) mRNA. The conditions noted are these: Homo sapiens. In short, it runs like this:
as §1

The test system of another experiment is Target C mRNA. Description: RT-qPCR splicing assay panel, Target C canonical junction (CJ) mRNA. The conditions noted are these: Homo sapiens. In short, it runs like this:
as §1

The mark [1] stands for this setting: 24 h, Table 3A, A673 or K562 cells, 24 h treatment.
The mark [2] stands for this setting: 24 h, Table 3A, A673 or K562 cells, 24 h treatment, read-out: HTT CJ (IC50, decrease in CJ mRNA).
The mark [3] stands for this setting: canonical junction (CJ) mRNA, RT-qPCR panel, Table 4A, read-out: HTT, decrease in CJ mRNA levels, IC50.
[4] abbreviates: 24 h, Table 3A, A673 or K562 cells, 24 h treatment, read-out: MYB CJ (IC50, decrease in CJ mRNA).
Setting [5] is: canonical junction (CJ) mRNA, RT-qPCR panel, Table 4A, read-out: MYB, decrease in CJ mRNA levels, IC50.
Setting [6] is: canonical junction (CJ) mRNA, RT-qPCR panel, Table 4A, read-out: SMN2, decrease in CJ mRNA levels, IC50.
Setting [7] is: canonical junction (CJ) mRNA, RT-qPCR panel, Table 4A, read-out: Target C, decrease in CJ mRNA levels, IC50.
[8] abbreviates: 24 h, Table 3B, A673 or K562 cells, 24 h treatment.
Setting [9] is: 24 h, Table 3B, A673 or K562 cells, 24 h treatment, read-out: HTT CJ (IC50, decrease in CJ mRNA).
Where [10] appears, read: Table 4B, gene panel, read-out: HTT (IC50, decrease in CJ mRNA levels).
[11] abbreviates: 24 h, Table 3B, A673 or K562 cells, 24 h treatment, read-out: MYB CJ (IC50, decrease in CJ mRNA).
[12] abbreviates: Table 4B, gene panel, read-out: MYB (IC50, decrease in CJ mRNA levels).
Setting [13] is: Table 4B, gene panel, read-out: SMN2 (IC50, decrease in CJ mRNA levels).
Setting [14] is: Table 4B, gene panel, read-out: Target C (IC50, decrease in CJ mRNA levels).

For `Cc1ncc(-c2ccc(-c3ccc(N4CC[C@H](NCC5CC5)C4)nn3)c(O)c2)s1` [Compound 380, 2-{6-[(3S)-3-[(cyclopropylmethyl)amino]pyrrolidin-1-yl]pyridazin-3-yl}-5-(2-methyl-1,3-thiazol-5-yl)phenol], the half-maximal activity concentration (AC50) in the experiment with HTT mRNA (setting [1]) and in the experiment on MYB mRNA (setting [1]) was less than 100 nM in each case. Besides, the half-maximal inhibitory concentration (IC50) in the experiment on HTT mRNA (setting [2]), in the experiment with HTT mRNA (setting [3]), with MYB mRNA (setting [4]), in the experiment on MYB mRNA (setting [5]), in the experiment on SMN2 mRNA (setting [6]) and with Target C mRNA (setting [7]) was less than 100 nM each time.

Take `COc1cc(-c2ccc(-c3ccc(N4CC[C@H](NCC5CC5)C4)nn3)c(O)c2)ncn1` [Compound 381, 2-{6-[(3S)-3-[(cyclopropylmethyl)amino]pyrrolidin-1-yl]pyridazin-3-yl}-5-(6-methoxypyrimidin-4-yl)phenol]: the AC50 in the experiment on HTT mRNA (setting [1]) and in the experiment with MYB mRNA (setting [1]) was 100 to 1000 nM in each case. Also, the IC50 in the experiment on HTT mRNA (setting [2]) was less than 100 nM; in the experiment with HTT mRNA (setting [3]), less than 100 nM; in the experiment with MYB mRNA (setting [4]) it was 100 to 1000 nM; in the experiment with MYB mRNA (setting [5]), 100 to 1000 nM; in the experiment with SMN2 mRNA (setting [6]), less than 100 nM; in the experiment with Target C mRNA (setting [7]), 100 to 1000 nM.

In the case of `Cc1cn(-c2cc(O)c(-c3ccc(N4CC[C@@H](NC5CCC5)C4)nn3)cc2F)cn1` [Compound 226, 2-{6-[(3R)-3-(cyclobutylamino)pyrrolidin-1-yl]pyridazin-3-yl}-4-fluoro-5-(4-methylimidazol-1-yl)phenol], the AC50 in the experiment on HTT mRNA (setting [1]) and in the experiment on MYB mRNA (setting [1]) was 100 to 1000 nM throughout. The 50% inhibitory concentration (IC50) in the experiment with HTT mRNA (setting [2]) is less than 100 nM; in the experiment on HTT mRNA (setting [3]), less than 100 nM; in the experiment on MYB mRNA (setting [4]), 100 to 1000 nM; in the experiment with MYB mRNA (setting [5]), 100 to 1000 nM; in the experiment on SMN2 mRNA (setting [6]) it was less than 100 nM; in the experiment with Target C mRNA (setting [7]), 100 to 1000 nM.

Take `CN(C1CCC1)[C@H]1CCN(c2ccc(-c3ccc(-c4cn[nH]c4)cc3O)nn2)C1` [Compound 294, 2-{6-[(3S)-3-[cyclobutyl(methyl)amino]pyrrolidin-1-yl]pyridazin-3-yl}-5-(1H-pyrazol-4-yl)phenol]: the AC50 with HTT mRNA (setting [1]) and with MYB mRNA (setting [1]) was 100 to 1000 nM each time. In addition, the IC50 with HTT mRNA (setting [2]) is less than 100 nM; in the experiment on HTT mRNA (setting [3]), less than 100 nM; in the experiment on MYB mRNA (setting [4]) it was 100 to 1000 nM; with MYB mRNA (setting [5]), 100 to 1000 nM; in the experiment with SMN2 mRNA (setting [6]), less than 100 nM; in the experiment with Target C mRNA (setting [7]) it was 100 to 1000 nM.

On to `COc1cc(-c2ccc(-c3ccc(N4CC[C@](C)(NCC5CC5)C4)nn3)c(O)c2)ncn1` [Compound 376, 2-{6-[(3S)-3-[(cyclopropylmethyl)amino]-3-methylpyrrolidin-1-yl]pyridazin-3-yl}-5-(6-methoxypyrimidin-4-yl)phenol], for which the concentration at half-maximal activity (AC50) in the experiment on HTT mRNA (setting [1]) was less than 100 nM; in the experiment with MYB mRNA (setting [1]), 100 to 1000 nM. Further, the half-inhibitory concentration (IC50) in the experiment with HTT mRNA (setting [2]) was less than 100 nM; in the experiment with HTT mRNA (setting [3]) it was less than 100 nM; in the experiment with MYB mRNA (setting [4]) it was 100 to 1000 nM; in the experiment with MYB mRNA (setting [5]), 100 to 1000 nM; in the experiment with SMN2 mRNA (setting [6]), less than 100 nM; with Target C mRNA (setting [7]), 100 to 1000 nM.

`Cc1nc2cc(O)c(-c3ccc(N4CC[C@H](NC(C)(C)C(C)C)C4)nn3)cc2o1` [Compound 875]: the AC50 in the experiment on HTT mRNA (setting [8]) was less than 100 nM; in the experiment on MYB mRNA (setting [8]), 100 to 1000 nM. In addition, the IC50 in the experiment with HTT mRNA (setting [9]) was less than 100 nM; in the experiment on HTT mRNA (setting [10]), less than 100 nM; in the experiment on MYB mRNA (setting [11]), 100 to 1000 nM; in the experiment on MYB mRNA (setting [12]), 100 to 1000 nM; in the experiment on SMN2 mRNA (setting [13]), less than 100 nM; with Target C mRNA (setting [14]) it was 100 to 1000 nM.

On to `Cc1nc2cc(O)c(-c3ccc(N4CC[C@@H](NC(C)(C)C(C)C)C4)nn3)cc2o1` [Compound 874], for which the AC50 with HTT mRNA (setting [8]) was less than 100 nM; in the experiment on MYB mRNA (setting [8]), 100 to 1000 nM. For the same compound, the IC50 in the experiment on HTT mRNA (setting [9]) was less than 100 nM; in the experiment on HTT mRNA (setting [10]), less than 100 nM; in the experiment on MYB mRNA (setting [11]), 100 to 1000 nM; in the experiment on MYB mRNA (setting [12]), 100 to 1000 nM; in the experiment on SMN2 mRNA (setting [13]), less than 100 nM; in the experiment on Target C mRNA (setting [14]), 100 to 1000 nM.

Consider `COc1cc(-c2ccc(-c3ccc(N4CCC(NCC5CC5)C4)nn3)c(O)c2)nc(C)n1` (centres unmarked) [Compound 371], for which the AC50 with HTT mRNA (setting [1]) was 1000 to 10000 nM; in the experiment on MYB mRNA (setting [1]), greater than 10000 nM. Besides, the IC50 with HTT mRNA (setting [2]) is 1000 to 10000 nM; with HTT mRNA (setting [3]) it was 1000 to 10000 nM; in the experiment on MYB mRNA (setting [4]) it was greater than 10000 nM; in the experiment with MYB mRNA (setting [5]) it was greater than 10000 nM; with SMN2 mRNA (setting [6]) it was 1000 to 10000 nM; with Target C mRNA (setting [7]), greater than 10000 nM.

Take `COc1cc(-c2ccc(-c3ccc(N4CC[C@H](N(C)C(C)(C)C)C4)nn3)c(O)c2)cnn1` [Compound 337, 2-{6-[(3S)-3-[tert-butyl(methyl)amino]pyrrolidin-1-yl]pyridazin-3-yl}-5-(6-methoxypyridazin-4-yl)phenol]: the AC50 in the experiment with HTT mRNA (setting [1]) and with MYB mRNA (setting [1]) was less than 100 nM each time. Further, the IC50 in the experiment with HTT mRNA (setting [2]), with HTT mRNA (setting [3]), in the experiment on MYB mRNA (setting [4]), in the experiment on MYB mRNA (setting [5]), in the experiment on SMN2 mRNA (setting [6]) and in the experiment on Target C mRNA (setting [7]) was less than 100 nM in each case.

For `COc1cc(-c2ccc(-c3ccc(N4CC[C@@](C)(NC5CCC5)C4)nn3)c(O)c2)ncn1` [Compound 366, 2-{6-[(3R)-3-(cyclobutylamino)-3-methylpyrrolidin-1-yl]pyridazin-3-yl}-5-(6-methoxypyrimidin-4-yl)phenol], the AC50 was less than 100 nM with HTT mRNA (setting [1]) and 100 to 1000 nM in the experiment on MYB mRNA (setting [1]). Moreover, the IC50 in the experiment with HTT mRNA (setting [2]) is less than 100 nM; in the experiment with HTT mRNA (setting [3]), less than 100 nM; with MYB mRNA (setting [4]), 100 to 1000 nM; in the experiment with MYB mRNA (setting [5]), 100 to 1000 nM; in the experiment with SMN2 mRNA (setting [6]) it was less than 100 nM; with Target C mRNA (setting [7]), 100 to 1000 nM.

In the case of `CCN(C1CCC1)[C@@H]1CCN(c2ccc(-c3ccc(-c4cnnc(OC)c4)cc3O)nn2)C1` [Compound 290, 2-{6-[(3R)-3-[cyclobutyl(ethyl)amino]pyrrolidin-1-yl]pyridazin-3-yl}-5-(6-methoxypyridazin-4-yl)phenol], the AC50 with HTT mRNA (setting [1]) and in the experiment with MYB mRNA (setting [1]) was 100 to 1000 nM throughout. Also, the IC50 was 100 to 1000 nM in the experiment on HTT mRNA (setting [2]); 100 to 1000 nM in the experiment on HTT mRNA (setting [3]); 100 to 1000 nM with MYB mRNA (setting [4]); 100 to 1000 nM in the experiment on MYB mRNA (setting [5]); less than 100 nM in the experiment on SMN2 mRNA (setting [6]); 100 to 1000 nM in the experiment with Target C mRNA (setting [7]).

In the case of `Cc1ncc(-c2ccc(-c3ccc(N4CC[C@](C)(NCC5CC5)C4)nn3)c(O)c2)s1` (single isomer, unassigned) [Compound 438], the AC50 in the experiment with HTT mRNA (setting [1]) and in the experiment with MYB mRNA (setting [1]) was 100 to 1000 nM in each case. The IC50 with HTT mRNA (setting [2]) was less than 100 nM; in the experiment on HTT mRNA (setting [3]), less than 100 nM; in the experiment on MYB mRNA (setting [4]), 100 to 1000 nM; in the experiment with MYB mRNA (setting [5]) it was 100 to 1000 nM; in the experiment with SMN2 mRNA (setting [6]), less than 100 nM; in the experiment with Target C mRNA (setting [7]), 100 to 1000 nM.

For the compound `Cc1ncc(-c2cc(O)c(-c3ccc(N4CC[C@@H](NC(C)(C)C)C4)nn3)cc2F)s1` [Compound 338, 2-{6-[(3R)-3-(tert-butylamino)pyrrolidin-1-yl]pyridazin-3-yl}-4-fluoro-5-(2-methyl-1,3-thiazol-5-yl) phenol], the half-maximal activity concentration (AC50) in the experiment on HTT mRNA (setting [1]) and in the experiment with MYB mRNA (setting [1]) was less than 100 nM each time. Moreover, the IC50 in the experiment on HTT mRNA (setting [2]), in the experiment with HTT mRNA (setting [3]), with MYB mRNA (setting [4]), in the experiment with MYB mRNA (setting [5]), in the experiment on SMN2 mRNA (setting [6]) and in the experiment on Target C mRNA (setting [7]) was less than 100 nM in each case.
